# Data as given in patent US8067422B2, “Crystal form of phenylamino pyrimidine derivatives” (Natco Pharma Limited, priority 2008, dated 2011).
# Columns and labels:
# [1] = test system: K562 luciferase expressing cells; experiment: Leukemic survival study in nude mice implanted with K562 luciferase expressing cells; type: in vivo
# Source text: K562 luciferase expressing cells were implanted intraperitoneally into nude mice; the mice were scanned using the xenogeny IVIS image station after ip injections of luciferin does determine implantations. Drug treatment was started as in previous studies day 15 after implantation. The animals were given treatment till day 42, after which drug treatment was stopped and survival of the animals determined as per the animal care regulations. […] Drug treatment was withdrawn on day 42 post implantation and survival of animals determined.
# 5310 glioma cells [2] = experiment: In vitro angiogenic assay, 5310 conditioned media on human dermal endothelial cells; type: cell-based; settings: 5310 cells
# Description: (§1) The in vitro angiogenesis of 4910, 5310 and U87 glioma cells and MDAMB231 and ZR71 breast cancer cells in the presence of specified concentrations of compounds were determined as follows, cells (2×10^4/well) were seeded in 8-well chamber slides and were treated with various concentrations of test compounds. After a 24 h incubation period, the conditioned media was removed and added to a 4×10^4 human dermal endothelial cell (monolayer in 8-well chamber slides) and the human dermal endothelial cells were allowed to grow for 72 h. Cells were then fixed in 3.7% formaldehyde and stained with H&E and photographed.
# in vivo [3] = settings: mouse, po
# [4] = test system: Baf3 murine leukemia cells (M351T); experiment: Blast cell count in nude mice implanted with Baf3 M351T cells; type: in vivo; settings: Baf3M351T; Imatinib 10 mg/kg, AN019 20 mg/kg, AN024 20 mg/kg, oral gavage or ip; day 42
# Source text: (§2) Blood smears were obtained via the tail vein or via the femoral vein every 6th day and blast cells counted and graphically represented.
# (§3) Abdominal swelling and decrease in activity was monitored daily, blood smear taken via the tail vein or the femoral vein every 6th day and H&E stained as per standard protocols. 42 days after implantation, mice were sacrificed and spleens harvested.
# (§4) Nude mice were intraperitoneally implanted with Baf3 mutant cells (wt, T315I, M351T or E255K). […] Blood was drawn from the femoral vein or tail vein every 6th day and blast cell count determined and graphically represented.
# K562 = experiment: ED50 (po) in leukemic mice (K562)
# ZR71 breast cancer cells [5] = experiment: In vitro angiogenic assay, ZR-71 conditioned media on human dermal endothelial cells; type: cell-based; settings: ZR-71 cells; radiation not distinguished
# Description: as §1
# 4910 glioma cells [6] = experiment: In vitro angiogenic assay, 4910 conditioned media on human dermal endothelial cells; type: cell-based; settings: 4910 cells
# Description: as §1
# ZR71 breast cancer cells [7] = experiment: Matrigel invasion assay (modified Boyden chamber), ZR-71; type: cell-based; settings: ZR-71
# Description: (§5) The in vitro invasiveness of 4910, 5310 and U87 glioma cells and MDAMB231 and ZR71 breast cancer cells in the presence of specified concentrations of compounds were assessed using a modified Boyden chamber assay. Cells were treated with these compounds for 48 h. 1×10^6 cells were suspended in 600 μl of serum-free medium supplemented with 0.2% BSA and placed in the upper compartment of the transwell chambers (Corning Costar Fischer Scientific Cat #07-200-158, Pittsburgh Pa.) coated with Matrigel (0.7 mg/ml). The lower compartment of the chamber was filled with 200 μl of serum medium and the cells were allowed to migrate for 24 h. After incubation, the cells were fixed and stained with Hema-3 and quantified as previously described (Mohanam et al. 1993). The migrated cells were imaged microscopically to determine the reduction in invasiveness induced by the compounds of this invention.
# [8] = test system: AKT, ERK and Pi3k in ZR71 breast cancer cells; experiment: Western blot analysis, ZR71; type: cell-based
# Description: (§6) Western blot analysis of 4910, 5310 and U87 glioma cells and MDAMB231 and ZR71 breast cancer cells in the presence of specified concentrations of compounds were assessed as per standard protocols. Cells were treated with AN019, AN024 or Temozolomide at the specified concentrations. 24 h after treatment, cells were collected and cell lysates extracted. Equal quantities of proteins were fractionated by SDS-PAGE. The fractionated proteins were blotted on to nylon membranes and immunoprobed for AKT, ERK and Pi3k. Breast cancer cell protein isolates were additionally immunoprobed for EGFR, ErbB1, ErbB2 and ErbB3.
# in vivo [9] = settings: mouse
# K562 cells = experiment: Anti-CML activity in nude mice implanted with K562 cells (leukemia growth index); type: in vivo; settings: ip injections
# Source text: Nude mice (nu/nu) were implanted with K562 cells (1×10^6) via tail vein.
# Blood was drawn via the tail vein. Quantitative analysis of LGI was graphically represented.
# [10] = test system: MDAMB231 breast cancer cells; experiment: In vitro angiogenic assay, MDA-MB-231 conditioned media on human dermal endothelial cells; type: cell-based; settings: MDA-MB-231 cells
# Description: as §1
# 5310 glioma cells [11] = experiment: Matrigel invasion assay (modified Boyden chamber), 5310; type: cell-based; settings: 5310
# Description: as §5
# [12] = test system: K562 luc human leukemia cells; experiment: Luciferase expression in nude mice implanted with K562 luc cells, low dose oral administration; type: in vivo
# Description: Five mice were used per group and divided into 24 groups+2 control. All groups were implanted with K562 normal/luc cells. Of the 24 groups, 12 were used for luciferase studies whereas the other 12 were used for blood smear count studies.
# Drugs were administered by oral gavage (2% gum acacia and 2% SLS in an aqueous suspension).
# U87 glioma cells [13] = experiment: Matrigel invasion assay (modified Boyden chamber), U87; type: cell-based; settings: U87
# Description: as §5
# [14] = test system: pAKT and pERK in glioma and breast cancer cells; experiment: Western blot analysis, pAKT and pERK (cell line not specified); type: cell-based; settings: both with and without radiation
# Description: as §6
# [15] = test system: AKT, ERK and Pi3k in 5310 glioma cells; experiment: Western blot analysis, 5310; type: cell-based
# Description: as §6
# [16] = test system: MDAMB231 breast cancer cells; experiment: Matrigel invasion assay (modified Boyden chamber), MDA-MB-231; type: cell-based; settings: MDA-MB-231
# Description: as §5
# [17] = test system: Baf3 murine leukemia cells (E255K); experiment: Blast cell count in nude mice implanted with Baf3 E255K cells; type: in vivo; settings: Baf3 E225K (E255K); Imatinib 10 mg/kg, AN019 20 mg/kg, AN024 20 mg/kg, oral gavage or ip; day 42
# Source text: as §2, §3, §4
# 4910 glioma cells [18] = experiment: Matrigel invasion assay (modified Boyden chamber), 4910; type: cell-based, human
# Description: as §5
# U87 glioma cells [19] = experiment: In vitro angiogenic assay, U87 conditioned media on human dermal endothelial cells; type: cell-based
# Description: as §1
smiles,measurement,setting,value
"Cc1ccc(NC(=O)c2cc(C(F)(F)F)cc(C(F)(F)F)c2)cc1Nc1nccc(-c2cccnc2)n1 [AN019, (3,5-bis trifluoromethyl)-N-[4-methyl-3-(4-pyridin-3yl-pyrimidin-2ylamino)-phenyl]-benzamide]","Blast cell count from blood smears, effectiveness after withdrawal of drug treatment",[1]; drug treatment withdrawn on day 42,showed effectiveness after withdrawal of drug treatment
same,Mortality,"[1]; treatment day 15 to day 42, then withdrawn, 10 animals",did not show any mortality
same,Inhibition of angiogenesis,5310 glioma cells [2]; after radiation,inhibition of angiogenesis was greater in control conditions than after radiation treatment
same,Inhibition of angiogenesis,5310 glioma cells [2]; control conditions (without radiation),inhibition of angiogenesis was greater in control conditions than after radiation treatment
same,LD50,in vivo [3],1130 mg/kg
same,Blast cell count in blood smears,[4],significant decrease in blast cell count
same,Therapeutic index - LD50/ED50,K562; Leukemic mice (K562),98.5
same,ED50,"K562; Mus musculus, K562, po, read-out: ED50 (po) Mice",11.5 mg/kg
same,Inhibition of angiogenesis,ZR71 breast cancer cells [5],complete inhibition of angiogenesis
same,Inhibition of angiogenesis,4910 glioma cells [6]; after radiation,increase in angiogenic inhibition
same,Inhibition of angiogenesis,4910 glioma cells [6]; without radiation,inhibition of angiogenesis similar to MDA-MB-231 cells
same,±Change in invasion after radiation,ZR71 breast cancer cells [7],−14%
same,AKT levels (Western blot),"[8]; ZR71, after radiation",enhanced after radiation
same,AKT levels (Western blot),"[8]; ZR71, unirradiated",decrease in AKT levels
same,PI3k levels (Western blot),"[8]; ZR71, with radiation",absent
same,PI3k levels (Western blot),"[8]; ZR71, without radiation",absent
same,MTD,in vivo [9],500 mg/kg
same,"Physiological, phenotypic or behavioral abnormality",K562 cells,"no abnormal physiological, phenotypic or behavioral abnormality"
same,Inhibition of angiogenesis,[10]; after radiation,slight inhibition
same,Inhibition of angiogenesis,[10]; control condition (without radiation),slight inhibition
same,±Change in invasion after radiation,5310 glioma cells [11],+1%
same,Luciferase expression,[12]; 1 mg/kg,did not induce a decrease in luciferase expression
same,Luciferase expression,[12]; 5 mg/kg,fixation of leukemia cells at constant expression levels
same,Luciferase expression,[12]; 10 mg/kg,decrease in luciferase expression
same,Luciferase expression,[12]; 20 mg/kg,decrease in luciferase expression
same,±Change in invasion after radiation,U87 glioma cells [13],0%
same,pERK levels (Western blot),[14],reduced significantly
same,AKT expression levels (Western blot),[15]; 5310,decrease in AKT expression levels
same,PI3k levels (Western blot),"[15]; 5310, after radiation",reappeared after radiation treatment
same,PI3k levels (Western blot),"[15]; 5310, without radiation",almost undetectable
same,±Change in invasion after radiation,[16],−30%
same,Blast cell count in blood smears,[17],significant decrease in blast cell count
same,±Change in invasion after radiation,4910 glioma cells [18]; 4910,−27%
same,+Radiation % Invasion,"4910 glioma cells [18]; 4910, with radiation, 48 h treatment",15%
same,Inhibition of angiogenesis,U87 glioma cells [19]; after radiation,significant retardation in angiogenesis
same,Inhibition of angiogenesis,U87 glioma cells [19]; without radiation,significant retardation in angiogenesis
